Measured values taken from ChEMBL document CHEMBL5620403, “Design, synthesis, activity and molecular dynamics studies of 1,3,4-thiadiazole derivatives as selective allosteric inhibitors of SHP2 for the treatment of cancer” (Eur J Med Chem, 2023).

Experiments:
MV4-11 [1] = test: Induction of apoptosis in human MV4-11 cells assessed as viable cells at 1.25 uM measured after 4 hrs by Annexin V-FITC/7-AAD staining based flow cytometric analysis (reference value: 95.9%); assay type: functional; conditions: read-out: Activity
MV4-11 [2] = test: Induction of apoptosis in human MV4-11 cells assessed as necrotic cells at 5 uM measured after 1 hrs by Annexin V-FITC/7-AAD staining based flow cytometric analysis (reference value: 0.068%); assay type: functional
MV4-11 [3] = test: Induction of apoptosis in human MV4-11 cells assessed as necrotic cells at 5 uM measured after 4 hrs by Annexin V-FITC/7-AAD staining based flow cytometric analysis (reference value: 0.041%); assay type: functional
MV4-11 [4] = test: Induction of apoptosis in human MV4-11 cells assessed as late apoptotic cells at 5 uM measured after 4 hrs by Annexin V-FITC/7-AAD staining based flow cytometric analysis (reference value: 0.98%); assay type: functional
A549 = test: Antiproliferative activity against human A549 cells assessed as inhibition of cell growth measured after 72 hrs by CCK8 method; assay type: functional, cell-based; conditions: A549, 72 h
MV4-11 [5] = test: Induction of apoptosis in human MV4-11 cells assessed as necrotic cells at 5 uM measured after 2 hrs by Annexin V-FITC/7-AAD staining based flow cytometric analysis (reference value: 0.068%); assay type: functional
MV4-11 [6] = test: Induction of apoptosis in human MV4-11 cells assessed as necrotic cells at 2.5 uM measured after 4 hrs by Annexin V-FITC/7-AAD staining based flow cytometric analysis (reference value: 0.041%); assay type: functional
MV4-11 [7] = test: Induction of apoptosis in human MV4-11 cells assessed as necrotic cells at 1.25 uM measured after 4 hrs by Annexin V-FITC/7-AAD staining based flow cytometric analysis (reference value: 0.041%); assay type: functional
MV4-11 [8] = test: Induction of apoptosis in human MV4-11 cells assessed as late apoptotic cells at 5 uM measured after 4 hrs by Annexin V-FITC/7-AAD staining based flow cytometric analysis (reference value: 1.58%); assay type: functional
MV4-11 [9] = test: Induction of apoptosis in human MV4-11 cells assessed as viable cells at 5 uM measured after 4 hrs by Annexin V-FITC/7-AAD staining based flow cytometric analysis (reference value: 95.9%); assay type: functional; conditions: read-out: Activity
MV4-11 [10] = test: Induction of apoptosis in human MV4-11 cells assessed as early apoptotic cells at 5 uM measured after 1 hrs by Annexin V-FITC/7-AAD staining based flow cytometric analysis (reference value: 2.13%); assay type: functional
MV4-11 [11] = test: Induction of apoptosis in human MV4-11 cells assessed as early apoptotic cells at 5 uM measured after 4 hrs by Annexin V-FITC/7-AAD staining based flow cytometric analysis (reference value: 2.48%); assay type: functional

Work on `C[C@@H]1OCC2(CCN(c3nnc(Sc4cccc(Cl)c4Cl)s3)CC2)[C@@H]1N` yielded a viability at 1.25 µM (MV4-11 [1]) of 95.9%, an Activity (MV4-11 [2]) of 0.91% and an Activity (MV4-11 [3]) of 1.55%. It also gave an Activity (MV4-11 [4]) of 7.78%, an IC50 (A549) of 12.1 µM and an Activity (MV4-11 [5]) of 1.17%. It also gave an Activity (MV4-11 [6]) of 0.076%, an Activity (MV4-11 [7]) of 0.12% and an Activity (MV4-11 [8]) of 5.98%. For the same compound, the viability at 5 µM (MV4-11 [9]) was 84.1%, the Activity (MV4-11 [10]) was 4.74% and the Activity (MV4-11 [11]) was 8.42%.
